Assay results reported in publication PMC12775434, “Ultra-large virtual screening unveils potent agonists of the neuromodulatory orphan receptor GPR139” (Nature Communications, 2025).
“And” between values parts separate entries of the source, which are not always exact repeats. Equal entries are not always repeated.

Legend:
[1] = biological target: T1, GPR139 (Homo sapiens, UniProt Q6DWJ6); experiment: Ca2+ mobilization assay, antagonist mode (EC80 800 nM Lundbeck Cmp 1a after 20 min preincubation), GPR139-CHOk1; type: cell-based; conditions: individual replicates (Supplementary Figure 1)
T1 sequence (Q6DWJ6 1-353): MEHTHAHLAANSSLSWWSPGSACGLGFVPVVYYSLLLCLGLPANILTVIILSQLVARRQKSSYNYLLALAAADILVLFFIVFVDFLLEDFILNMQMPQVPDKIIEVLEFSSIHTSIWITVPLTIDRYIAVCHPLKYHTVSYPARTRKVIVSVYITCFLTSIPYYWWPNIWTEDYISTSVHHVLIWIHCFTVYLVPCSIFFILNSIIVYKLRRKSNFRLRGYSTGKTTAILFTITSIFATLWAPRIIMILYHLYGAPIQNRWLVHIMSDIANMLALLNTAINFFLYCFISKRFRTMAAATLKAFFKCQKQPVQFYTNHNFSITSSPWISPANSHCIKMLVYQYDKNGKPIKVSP
Method: (§1) 30,000 GPR139- or M1R-CHOk1 cells/well were seeded in black clear bottom tissue culture treated 96-well plates (Greiner #655090) and grown for 20–24 h. Cells were washed with HEPES buffer (Hank’s Balanced Salt Solution (HBBS) supplemented with 20 mM HEPES, 1 mM MgCl2, and 1 mM CaCl2; pH 7.4). Cells were loaded with 50 µL of 2 µM Fluo-4 AM dye (ThermoFisher #F14202) in HEPES buffer supplemented with 2.5 mM probenecid and 0.01% Pluronic F-68 (ThermoFisher #24040032) for 1 h at 37 °C. Cells were washed with HEPES buffer. 50 µL HEPES buffer supplemented with 2.5 mM probenecid was added, and the cells were incubated for 10 min at 37 °C before measurement. 50 µL test compounds diluted in HEPES buffer from DMSO stocks (final DMSO concentration of maximally 0.3%) were added automatically after baseline measurements. The intracellular calcium mobilization was measured on a FlexStation 3 Multimode Microplate Reader (Molecular Devices) at 37 °C with filters for excitation of 485 nm and emission of 525 nm.
Our primary compound screening protocol consisted of two subsequent steps that allowed to screen for agonists and antagonists simultaneously. In the first step, the screening compounds were applied at 10 µM to test for agonist activity (agonist mode). Following 20 min incubation with the compounds added in the first step, in the second step, an EC80 concentration (800 nM) of the reference agonist Lundbeck Cmp 1a was applied to test for antagonist activity (antagonist mode). In the agonist mode (first step) response is seen only with compounds having agonist activity (Cmp 1a), but not with non-receptor-binding compounds (Vehicle) or antagonists (NCRW0105-E06) (Supplementary Fig. 14). […] No antagonist compounds were identified in this study.

[2] = biological target: T1, GPR139; experiment: Ca2+ mobilization assay, agonist mode, stable GPR139-CHOk1 cell line; type: cell-based; conditions: Agonist mode; individual replicates (Supplementary Figure 1)
Method: Primary screening and pharmacological characterization of compounds were performed using a CHO-K1 cell line that stably expresses human GPR139 (GPR139-CHOk1). The GPR139-CHOk1 cell line was kindly provided by H. Lundbeck A/S, Denmark[24]. GPR139-CHOk1 cells were grown in Ham’s F-12 Kaighn’s Modification Medium (ThermoFisher #21127030) supplemented with 10% dialyzed fetal bovine serum (US origin, ThermoFisher #26400044), 100 units/mL Penicillin-Streptomycin (ThermoFisher #15140122), and 1 mg/mL Geneticin (ThermoFisher #11811031). […] M1R-CHOk1 cells were purchased from The Missouri S&T cDNA Resource Center (#CEM100TN00). M1R-CHOk1 cells were grown in Ham’s F12 Medium (ThermoFisher #21765029) supplemented with 10% fetal bovine serum (Brazilian origin, ThermoFisher #10270106), 100 units/mL Penicillin-Streptomycin, and 0.25 mg/mL Geneticin. HEK293A cells transiently transfected with GPR139 were used for additional pharmacological assessment of signaling pathways activated by GPR139. HEK239A cells were generously provided by Dr. Asuka Inoue, Tohoku University, Japan. HEK293A cells were grown in Dulbecco’s Modified Eagle Medium (ThermoFisher #31966047) supplemented with 10% dialyzed fetal bovine serum and 100 units/mL Penicillin-Streptomycin. Cell lines were maintained at 37 °C in humidified incubator equilibrated with 5% CO2.
as §1
Our primary compound screening protocol consisted of two subsequent steps that allowed to screen for agonists and antagonists simultaneously. In the first step, the screening compounds were applied at 10 µM to test for agonist activity (agonist mode). Following 20 min incubation with the compounds added in the first step, in the second step, an EC80 concentration (800 nM) of the reference agonist Lundbeck Cmp 1a was applied to test for antagonist activity (antagonist mode).
Pharmacological data and statistical analyses were performed in GraphPad Prism v9–10 (Graphpad Software Inc., San Diego, CA), which are also specifically described in the figure and table legends. The functional assay responses were normalized to buffer (0%) and Lundbeck Cmp 1a or JNJ-63533054 (100%), for Ca^2+ and IP1 experiments in the GPR139-CHOk1 stable cell line or Ca^2+, G protein activation, and arrestin-3 recruitment experiments in the HEK293A cells transiently transfected with GPR139, respectively. Data are from at least three independent experiments, unless stated otherwise. Concentration-response curves were fitted applying non-linear regression using the log (agonist) versus response model with variable slope. ANOVA was applied for comparing results and determining statistical significance.

| Compound | Ca2+ signal (% of Cmp 1a) [1] | Ca2+ signal (% of Cmp 1a) [2] |
| --- | --- | --- |
| O=C(Nc1ccnc(-c2ccccc2)n1)C1COc2ccccc21 (stereo not drawn) [Compound 31, O=C(NC=1C=CN=C(N1)C=2C=CC=CC2)C3COC=4C=CC=CC34] | 69.7439 % of Cmp 1a and 83.7645 % of Cmp 1a and 84.6387 % of Cmp 1a | -5 % of Cmp 1a and 0.292 % of Cmp 1a and -0.778 % of Cmp 1a |
| CC(NC(=O)c1occc1COc1ccccc1)c1ccon1 (stereo not drawn) [Compound 32, CC(NC(=O)C=1OC=CC1COC=2C=CC=CC2)C=3C=CON3] | 55.4318 % of Cmp 1a and 73.597 % of Cmp 1a and 97.305 % of Cmp 1a | -11 % of Cmp 1a and -0.416 % of Cmp 1a and 7 % of Cmp 1a |
| O=C(CCn1nnc2ccccc2c1=O)Nc1ccc(F)c(F)c1F [Compound 33, FC=1C=CC(NC(=O)CCN2N=NC=3C=CC=CC3C2=O)=C(F)C1F] | 80.4976 % of Cmp 1a and 74.4333 % of Cmp 1a and 82.6399 % of Cmp 1a | -1.58 % of Cmp 1a and 1 % of Cmp 1a and 18 % of Cmp 1a |
| CC(NC(=O)N1CCCCC1c1cnn(C)c1)c1nccs1 (stereo not drawn) [Compound 34, CC(NC(=O)N1CCCCC1C=2C=NN(C)C2)C3=NC=CS3] | 69.32 % of Cmp 1a and 71.8073 % of Cmp 1a and 90.0552 % of Cmp 1a | -1.66 % of Cmp 1a and 6.32 % of Cmp 1a and -6 % of Cmp 1a |
| O=C(NCc1cccnc1)c1cn(-c2cccc(Cl)c2)nn1 [Compound 35, ClC=1C=CC=C(C1)N2C=C(N=N2)C(=O)NCC=3C=CC=NC3] | 84.5048 % of Cmp 1a and 71.7301 % of Cmp 1a and 84.4533 % of Cmp 1a | 5.3 % of Cmp 1a and 12 % of Cmp 1a and 7.49 % of Cmp 1a |
| CC(=O)c1sc(NC(=O)Cc2cncs2)nc1-c1ccccc1 [Compound 36, CC(=O)C=1SC(NC(=O)CC2=CN=CS2)=NC1C=3C=CC=CC3] | 88.0715 % of Cmp 1a and 92.8057 % of Cmp 1a and 66.8597 % of Cmp 1a | 9 % of Cmp 1a and -3 % of Cmp 1a and 2.21 % of Cmp 1a |
| Cc1ccc(-n2cc(NC(=O)NCc3cccs3)cn2)c(C)c1 [Compound 37, CC=1C=CC(=C(C)C1)N2C=C(NC(=O)NCC3=CC=CS3)C=N2] | 89.9792 % of Cmp 1a and 76.2749 % of Cmp 1a and 86.0947 % of Cmp 1a | -6 % of Cmp 1a and 12 % of Cmp 1a and 7 % of Cmp 1a |
| Cc1nnsc1C(=O)N1CCCC1c1nc2cc(Cl)ccc2[nH]1 (stereo not drawn) [Compound 38, CC=1N=NSC1C(=O)N2CCCC2C3=NC=4C=C(Cl)C=CC4N3] | 85.3922 % of Cmp 1a and 96.4303 % of Cmp 1a and 86.2753 % of Cmp 1a | 1.3 % of Cmp 1a and 1.18 % of Cmp 1a and -5.34 % of Cmp 1a |
| Cn1ccc(CNC(=O)Nc2cc(-c3cc(F)cc(F)c3)nn2C)c1 [Compound 39, CN1C=CC(CNC(=O)NC2=CC(=NN2C)C=3C=C(F)C=C(F)C3)=C1] | 63.6266 % of Cmp 1a and 84.5465 % of Cmp 1a and 97.4779 % of Cmp 1a | -2.56 % of Cmp 1a and -1.6 % of Cmp 1a and -1.54 % of Cmp 1a |
| CN(Cc1ncc(Cl)n1C)c1nc2cc([N+](=O)[O-])ccc2[nH]1 [Compound 40, CN(CC1=NC=C(Cl)N1C)C2=NC=3C=C(C=CC3N2)[N+](=O)[O-]] | 84.3072 % of Cmp 1a and 83.9821 % of Cmp 1a and 105.029 % of Cmp 1a | -0.934 % of Cmp 1a and 6 % of Cmp 1a and 11 % of Cmp 1a |
| Cc1ccc(NC(=O)C2Cc3ccccc32)cc1C(=O)N(C)C(C)C (stereo not drawn) [Compound 41, CC(C)N(C)C(=O)C=1C=C(NC(=O)C2CC=3C=CC=CC23)C=CC1C] | 75.8841 % of Cmp 1a and 100.088 % of Cmp 1a and 66.5963 % of Cmp 1a | 0.898 % of Cmp 1a and -4.45 % of Cmp 1a and -1.11 % of Cmp 1a |
| Cn1nc(-c2ccc(F)cc2F)cc1NC(=O)NCc1ccccn1 [Compound 42, CN1N=C(C=C1NC(=O)NCC=2C=CC=CN2)C=3C=CC(F)=CC3F] | 73.5301 % of Cmp 1a and 76.7288 % of Cmp 1a and 79.4888 % of Cmp 1a | 0.111 % of Cmp 1a and 2.67 % of Cmp 1a and 15 % of Cmp 1a |
